According to ChEMBL document CHEMBL5653628, “Selective JAK3 Inhibitors with a Covalent Reversible Binding Mode Targeting a New Induced Fit Binding Pocket” (Cell Chem Biol, 2016):
Each block holds one compound with its values, some of them ahead of it. Activity calls are given as the source filed them. The calls are words filed in the database; no cut-off is given here.

How the values were obtained:
[1] = molecular target: Glycogen synthase kinase-3 beta (Homo sapiens, UniProt P49841); assay: Inhibition of GSK3beta (unknown origin)
Protein kinase C (PKC) = assay: Inhibition of PKC (unknown origin); assay type: protein assay, Homo sapiens
[2] = molecular target: Cytoplasmic tyrosine-protein kinase BMX (Homo sapiens, UniProt P51813); assay: Inhibition of BMX (unknown origin)
[3] = molecular target: Epidermal growth factor receptor (Homo sapiens, UniProt P00533); assay: Inhibition of EGFR (unknown origin)
[4] = molecular target: Tyrosine-protein kinase Tec (Homo sapiens, UniProt P42680); assay: Inhibition of TEC (unknown origin)
[5] = molecular target: Receptor tyrosine-protein kinase erbB-2 (Homo sapiens, UniProt P04626); assay: Inhibition of ERB-B2 (unknown origin)
[6] = molecular target: Tyrosine-protein kinase TXK (Homo sapiens, UniProt P42681); assay: Inhibition of TXK (unknown origin)
[7] = molecular target: T1, Tyrosine-protein kinase Fyn (Homo sapiens, UniProt P06241); assay: Inhibition of FYN (unknown origin) by trFRET binding assay
Target sequence in this assay (P06241 whole entry): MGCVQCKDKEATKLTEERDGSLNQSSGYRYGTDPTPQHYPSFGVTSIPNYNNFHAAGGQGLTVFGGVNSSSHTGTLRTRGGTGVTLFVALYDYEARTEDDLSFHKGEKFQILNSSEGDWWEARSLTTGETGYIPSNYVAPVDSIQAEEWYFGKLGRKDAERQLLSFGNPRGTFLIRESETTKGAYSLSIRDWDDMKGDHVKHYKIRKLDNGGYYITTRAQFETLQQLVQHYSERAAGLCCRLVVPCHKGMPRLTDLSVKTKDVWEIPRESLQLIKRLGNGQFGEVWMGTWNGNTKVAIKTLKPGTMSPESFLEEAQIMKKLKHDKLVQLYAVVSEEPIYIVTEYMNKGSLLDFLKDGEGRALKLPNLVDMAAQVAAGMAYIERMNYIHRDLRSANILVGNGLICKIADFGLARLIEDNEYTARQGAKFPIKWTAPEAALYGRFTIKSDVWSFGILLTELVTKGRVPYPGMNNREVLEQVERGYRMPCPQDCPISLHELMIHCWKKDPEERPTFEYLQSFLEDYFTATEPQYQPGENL

[8] = molecular target: Serine/threonine-protein kinase 16 (Homo sapiens, UniProt O75716); assay: Inhibition of STK16 (unknown origin) by trFRET binding assay
[9] = molecular target: T2, Tyrosine-protein kinase JAK3 (Homo sapiens, UniProt P52333); assay: Inhibition of JAK3 (unknown origin) by trFRET binding assay
T2 sequence (P52333 whole entry): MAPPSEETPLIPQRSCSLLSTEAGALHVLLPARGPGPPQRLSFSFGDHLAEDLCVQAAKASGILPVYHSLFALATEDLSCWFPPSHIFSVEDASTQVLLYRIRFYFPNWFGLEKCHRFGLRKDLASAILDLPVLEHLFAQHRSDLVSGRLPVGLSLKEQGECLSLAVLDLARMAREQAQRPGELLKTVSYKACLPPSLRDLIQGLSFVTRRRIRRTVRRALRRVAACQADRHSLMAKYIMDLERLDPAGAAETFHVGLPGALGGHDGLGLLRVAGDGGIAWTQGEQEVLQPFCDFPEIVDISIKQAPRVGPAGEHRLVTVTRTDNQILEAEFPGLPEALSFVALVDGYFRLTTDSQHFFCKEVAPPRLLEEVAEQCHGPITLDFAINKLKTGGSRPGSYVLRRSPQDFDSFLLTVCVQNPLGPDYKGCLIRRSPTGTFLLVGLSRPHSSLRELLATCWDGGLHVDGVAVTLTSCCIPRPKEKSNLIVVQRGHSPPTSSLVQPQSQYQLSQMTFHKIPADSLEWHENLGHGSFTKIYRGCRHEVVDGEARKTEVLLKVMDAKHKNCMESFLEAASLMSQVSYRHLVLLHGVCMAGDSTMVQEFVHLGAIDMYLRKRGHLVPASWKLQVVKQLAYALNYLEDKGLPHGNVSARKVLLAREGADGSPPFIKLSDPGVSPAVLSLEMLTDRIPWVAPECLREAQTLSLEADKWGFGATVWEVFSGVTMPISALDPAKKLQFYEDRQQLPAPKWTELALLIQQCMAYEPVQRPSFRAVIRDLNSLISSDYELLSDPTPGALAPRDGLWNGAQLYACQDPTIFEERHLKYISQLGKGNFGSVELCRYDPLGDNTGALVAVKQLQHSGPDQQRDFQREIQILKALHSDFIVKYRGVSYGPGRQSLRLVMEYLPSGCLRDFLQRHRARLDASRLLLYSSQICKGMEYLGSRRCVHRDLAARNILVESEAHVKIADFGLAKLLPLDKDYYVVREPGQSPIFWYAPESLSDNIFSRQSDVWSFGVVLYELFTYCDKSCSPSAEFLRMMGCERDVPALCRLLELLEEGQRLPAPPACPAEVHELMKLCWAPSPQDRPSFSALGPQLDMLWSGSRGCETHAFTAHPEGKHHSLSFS

[10] = molecular target: Vascular endothelial growth factor receptor 2 (Homo sapiens, UniProt P35968); assay: Inhibition of KDR (unknown origin) by trFRET binding assay
[11] = molecular target: Proto-oncogene tyrosine-protein kinase Src (Homo sapiens, UniProt P12931); assay: Inhibition of SRC (unknown origin) by trFRET binding assay
[12] = molecular target: Vascular endothelial growth factor receptor 1 (Homo sapiens, UniProt P17948); assay: Inhibition of FLT1 (unknown origin) by trFRET binding assay
[13] = molecular target: T2, Tyrosine-protein kinase JAK3
Description: Inhibition of JAK3 (unknown origin) in presence of ATP by radiometric assay

[14] = molecular target: Tyrosine-protein kinase BTK (Homo sapiens, UniProt Q06187); assay: Inhibition of BTK (unknown origin) by trFRET binding assay
[15] = molecular target: Serine/threonine-protein kinase 33 (Homo sapiens, UniProt Q9BYT3); assay: Inhibition of STK33 (unknown origin) by trFRET binding assay
[16] = molecular target: G protein-coupled receptor kinase 5 (Homo sapiens, UniProt P34947); assay: Inhibition of GRK5 (unknown origin) by trFRET binding assay
[17] = molecular target: Proto-oncogene tyrosine-protein kinase receptor Ret (Homo sapiens, UniProt P07949); assay: Inhibition of RET (unknown origin) by trFRET binding assay
[18] = molecular target: Mitogen-activated protein kinase kinase kinase kinase 2 (Homo sapiens, UniProt Q12851); assay: Inhibition of MAP4K2 (unknown origin) by trFRET binding assay
[19] = molecular target: Leukocyte tyrosine kinase receptor (Homo sapiens, UniProt P29376); assay: Inhibition of LTK (unknown origin) by trFRET binding assay
[20] = molecular target: Fibroblast growth factor receptor 1 (Homo sapiens, UniProt P11362); assay: Inhibition of FGFR1 (unknown origin) by trFRET binding assay
[21] = molecular target: Hepatocyte growth factor-like protein (Homo sapiens) (UniProt P26927); conditions: dose 500.0 nM
Description: Inhibition of MST1 (unknown origin) at 500 nM relative to control

[22] = molecular target: Dual specificity protein kinase CLK3 (Homo sapiens) (UniProt P49761); conditions: dose 500.0 nM
Description: Inhibition of CLK3 (unknown origin) at 500 nM relative to control

cells [23] = conditions: Homo sapiens, CD4+ve Th, 1.5 h, read-out: INH
[24] = molecular target: T3, Tyrosine-protein kinase JAK3 (Homo sapiens) (UniProt P52333); conditions: HeLa, dose 100.0 nM, time 1.0 hrs
T3 sequence (whole entry): T2 sequence (P52333 whole entry)

[25] = test system: NPM/ALK (Nucleophosmin/ALK tyrosine kinase receptor) (Homo sapiens), Q9UM73+P06748 [F1174L]; conditions: dose 500.0 nM
Description: Inhibition of NPM1ALK F1174L mutant (unknown origin) at 500 nM relative to control

[26] = test system: Fibroblast growth factor receptor 3 (Homo sapiens), P22607 [G697C]; conditions: dose 500.0 nM
[27] = molecular target: Mitogen-activated protein kinase kinase kinase kinase 4 (Homo sapiens) (UniProt O95819); conditions: dose 500.0 nM
Description: Inhibition of NIK (unknown origin) at 500 nM relative to control

[28] = molecular target: Phosphatidylinositol 3-kinase catalytic subunit type 3 (Homo sapiens) (UniProt Q8NEB9); conditions: dose 500.0 nM
Description: Inhibition of PIK3C3 (unknown origin) at 500 nM relative to control

[29] = molecular target: T3, Tyrosine-protein kinase JAK3 (Homo sapiens); conditions: dose 500.0 nM
Description: Inhibition of JAK3 (unknown origin) at 500 nM relative to control

[30] = molecular target: Macrophage-stimulating protein receptor (Homo sapiens) (UniProt Q04912); conditions: dose 500.0 nM
Description: Inhibition of RON (unknown origin) at 500 nM relative to control

[31] = molecular target: Serine/threonine-protein kinase Nek6 (Homo sapiens) (UniProt Q9HC98); conditions: dose 500.0 nM
Description: Inhibition of NEK6 (unknown origin) at 500 nM relative to control

[32] = molecular target: STE20/SPS1-related proline-alanine-rich protein kinase (Homo sapiens) (UniProt Q9UEW8); conditions: dose 500.0 nM
Description: Inhibition of STK39 (unknown origin) at 500 nM relative to control

CD4+ve Th [33] = conditions: Homo sapiens, dose 50-100 nM, time 1.5 hrs
[34] = molecular target: G protein-coupled receptor kinase 6 (Homo sapiens) (UniProt P43250); conditions: dose 500.0 nM
Description: Inhibition of GRK6 (unknown origin) at 500 nM relative to control

[35] = molecular target: Serine/threonine-protein kinase D1 (Homo sapiens) (UniProt Q15139); conditions: dose 500.0 nM
Description: Inhibition of PKC-mu (unknown origin) at 500 nM relative to control

[36] = molecular target: MAP kinase-activated protein kinase 3 (Homo sapiens) (UniProt Q16644); conditions: dose 500.0 nM
Description: Inhibition of MAPKAPK3 (unknown origin) at 500 nM relative to control

[37] = molecular target: MAP kinase-activated protein kinase 2 (Homo sapiens) (UniProt P49137); conditions: dose 500.0 nM
Description: Inhibition of MAPKAPK2 (unknown origin) at 500 nM relative to control

CD4+ve Th [38] = conditions: Homo sapiens, dose <= 1000.0 nM, time 1.5 hrs
[39] = molecular target: Tyrosine-protein kinase CSK (Homo sapiens) (UniProt P41240); conditions: dose 500.0 nM
Description: Inhibition of CSK (unknown origin) at 500 nM relative to control

[40] = molecular target: T1, Tyrosine-protein kinase Fyn; conditions: dose 500.0 nM
Description: Inhibition of wild-type FYN (unknown origin) at 500 nM relative to control

[41] = molecular target: Homeodomain-interacting protein kinase 1 (Homo sapiens) (UniProt Q86Z02); conditions: dose 500.0 nM
Description: Inhibition of HIPK1 (unknown origin) at 500 nM relative to control

CD4+ve Th [42] = conditions: Homo sapiens, dose <= 1000.0 nM, time 1.5 hrs; remark: listed apart in the source
[43] = molecular target: Serine/threonine-protein kinase haspin (Homo sapiens) (UniProt Q8TF76); conditions: dose 500.0 nM
Description: Inhibition of GSG2 (unknown origin) at 500 nM relative to control

[44] = molecular target: Receptor tyrosine-protein kinase erbB-4 (Homo sapiens) (UniProt Q15303); conditions: dose 500.0 nM
Description: Inhibition of ERBB4 (unknown origin) at 500 nM relative to control

[45] = test system: Mast/stem cell growth factor receptor Kit (Homo sapiens), P10721 [V559D,V654A]; conditions: dose 500.0 nM
cells [46] = conditions: Homo sapiens, CD4+ve Th, 1.5 h, read-out: INH; remark: listed apart in the source
[47] = molecular target: T3, Tyrosine-protein kinase JAK3 (Homo sapiens); conditions: HeLa, dose 100.0 nM, time 2.0 hrs
[48] = molecular target: Mitogen-activated protein kinase 14 (Homo sapiens) (UniProt Q16539); conditions: dose 500.0 nM
Description: Inhibition of p38-alpha (unknown origin) at 500 nM relative to control

[49] = molecular target: Phosphatidylinositol 4,5-bisphosphate 3-kinase catalytic subunit gamma isoform (Homo sapiens) (UniProt P48736); conditions: dose 500.0 nM
Description: Inhibition of PIK3CG (unknown origin) at 500 nM relative to control

Chain of Tyrosine-protein kinase BTK (Q06187 whole entry): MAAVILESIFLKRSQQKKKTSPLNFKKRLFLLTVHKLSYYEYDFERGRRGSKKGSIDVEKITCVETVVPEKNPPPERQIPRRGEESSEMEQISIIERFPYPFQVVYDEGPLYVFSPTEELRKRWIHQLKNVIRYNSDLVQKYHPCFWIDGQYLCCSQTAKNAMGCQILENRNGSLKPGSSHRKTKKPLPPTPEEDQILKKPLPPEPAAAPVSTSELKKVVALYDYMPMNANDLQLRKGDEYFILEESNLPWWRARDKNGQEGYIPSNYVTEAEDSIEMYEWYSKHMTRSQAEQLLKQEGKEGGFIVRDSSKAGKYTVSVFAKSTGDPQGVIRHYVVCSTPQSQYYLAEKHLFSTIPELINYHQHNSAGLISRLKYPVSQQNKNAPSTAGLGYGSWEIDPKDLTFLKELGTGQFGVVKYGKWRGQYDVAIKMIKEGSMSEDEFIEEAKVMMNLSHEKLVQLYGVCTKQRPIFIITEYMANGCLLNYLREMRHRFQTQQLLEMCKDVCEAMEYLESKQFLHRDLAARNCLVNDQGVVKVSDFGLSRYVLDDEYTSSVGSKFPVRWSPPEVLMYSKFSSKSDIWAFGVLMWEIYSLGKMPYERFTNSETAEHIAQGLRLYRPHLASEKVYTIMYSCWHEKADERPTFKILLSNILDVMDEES
Chain of Tyrosine-protein kinase Tec (P42680 whole entry): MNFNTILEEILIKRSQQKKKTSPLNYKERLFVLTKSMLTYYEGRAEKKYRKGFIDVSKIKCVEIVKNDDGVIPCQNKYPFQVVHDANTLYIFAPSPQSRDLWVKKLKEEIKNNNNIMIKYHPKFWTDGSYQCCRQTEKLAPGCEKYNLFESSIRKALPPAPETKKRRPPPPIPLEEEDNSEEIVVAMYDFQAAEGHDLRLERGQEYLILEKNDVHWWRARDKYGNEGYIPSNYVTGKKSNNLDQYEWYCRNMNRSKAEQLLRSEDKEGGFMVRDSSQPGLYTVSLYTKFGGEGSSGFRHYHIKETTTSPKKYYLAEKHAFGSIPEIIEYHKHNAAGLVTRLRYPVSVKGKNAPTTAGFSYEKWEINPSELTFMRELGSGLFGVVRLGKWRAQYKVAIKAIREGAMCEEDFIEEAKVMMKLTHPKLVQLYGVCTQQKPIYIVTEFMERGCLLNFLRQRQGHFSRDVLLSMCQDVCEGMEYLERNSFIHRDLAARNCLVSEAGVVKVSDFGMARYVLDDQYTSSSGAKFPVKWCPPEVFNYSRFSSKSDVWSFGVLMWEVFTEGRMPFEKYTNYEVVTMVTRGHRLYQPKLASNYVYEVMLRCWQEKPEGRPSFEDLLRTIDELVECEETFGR
Chain of Serine/threonine-protein kinase 33 (Q9BYT3 whole entry): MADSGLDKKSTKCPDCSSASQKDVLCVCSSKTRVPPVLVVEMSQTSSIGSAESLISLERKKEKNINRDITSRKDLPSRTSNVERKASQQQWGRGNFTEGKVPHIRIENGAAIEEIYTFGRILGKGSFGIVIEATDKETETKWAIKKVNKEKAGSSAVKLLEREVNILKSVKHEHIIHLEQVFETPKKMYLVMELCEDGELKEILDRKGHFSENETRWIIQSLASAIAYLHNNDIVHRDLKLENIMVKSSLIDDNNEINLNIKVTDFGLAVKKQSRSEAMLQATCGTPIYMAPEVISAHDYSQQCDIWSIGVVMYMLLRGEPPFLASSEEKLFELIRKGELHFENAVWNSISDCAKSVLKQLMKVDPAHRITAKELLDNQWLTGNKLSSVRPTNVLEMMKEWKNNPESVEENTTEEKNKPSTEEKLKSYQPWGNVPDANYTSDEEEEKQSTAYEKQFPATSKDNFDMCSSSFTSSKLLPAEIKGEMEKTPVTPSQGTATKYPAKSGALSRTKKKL
Chain of Cytoplasmic tyrosine-protein kinase BMX (P51813 whole entry): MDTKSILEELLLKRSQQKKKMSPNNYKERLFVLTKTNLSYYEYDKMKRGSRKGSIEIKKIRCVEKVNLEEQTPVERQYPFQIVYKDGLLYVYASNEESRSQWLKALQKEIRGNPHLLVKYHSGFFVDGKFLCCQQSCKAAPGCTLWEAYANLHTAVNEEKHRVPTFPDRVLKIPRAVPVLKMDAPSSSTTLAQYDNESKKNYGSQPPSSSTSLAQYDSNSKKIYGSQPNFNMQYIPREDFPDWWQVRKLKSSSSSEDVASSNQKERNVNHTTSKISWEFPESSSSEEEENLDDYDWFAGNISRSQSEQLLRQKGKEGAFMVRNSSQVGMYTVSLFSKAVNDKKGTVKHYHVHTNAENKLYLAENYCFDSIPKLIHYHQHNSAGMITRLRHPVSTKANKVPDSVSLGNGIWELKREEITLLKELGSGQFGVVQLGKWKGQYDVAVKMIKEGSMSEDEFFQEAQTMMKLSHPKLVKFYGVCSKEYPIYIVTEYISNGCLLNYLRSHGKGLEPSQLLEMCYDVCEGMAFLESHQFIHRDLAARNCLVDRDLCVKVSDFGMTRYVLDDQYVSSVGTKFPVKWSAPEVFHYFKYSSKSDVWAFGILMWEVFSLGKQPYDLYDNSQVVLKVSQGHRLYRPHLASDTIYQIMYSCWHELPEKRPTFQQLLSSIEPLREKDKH
Chain of Epidermal growth factor receptor (P00533 whole entry): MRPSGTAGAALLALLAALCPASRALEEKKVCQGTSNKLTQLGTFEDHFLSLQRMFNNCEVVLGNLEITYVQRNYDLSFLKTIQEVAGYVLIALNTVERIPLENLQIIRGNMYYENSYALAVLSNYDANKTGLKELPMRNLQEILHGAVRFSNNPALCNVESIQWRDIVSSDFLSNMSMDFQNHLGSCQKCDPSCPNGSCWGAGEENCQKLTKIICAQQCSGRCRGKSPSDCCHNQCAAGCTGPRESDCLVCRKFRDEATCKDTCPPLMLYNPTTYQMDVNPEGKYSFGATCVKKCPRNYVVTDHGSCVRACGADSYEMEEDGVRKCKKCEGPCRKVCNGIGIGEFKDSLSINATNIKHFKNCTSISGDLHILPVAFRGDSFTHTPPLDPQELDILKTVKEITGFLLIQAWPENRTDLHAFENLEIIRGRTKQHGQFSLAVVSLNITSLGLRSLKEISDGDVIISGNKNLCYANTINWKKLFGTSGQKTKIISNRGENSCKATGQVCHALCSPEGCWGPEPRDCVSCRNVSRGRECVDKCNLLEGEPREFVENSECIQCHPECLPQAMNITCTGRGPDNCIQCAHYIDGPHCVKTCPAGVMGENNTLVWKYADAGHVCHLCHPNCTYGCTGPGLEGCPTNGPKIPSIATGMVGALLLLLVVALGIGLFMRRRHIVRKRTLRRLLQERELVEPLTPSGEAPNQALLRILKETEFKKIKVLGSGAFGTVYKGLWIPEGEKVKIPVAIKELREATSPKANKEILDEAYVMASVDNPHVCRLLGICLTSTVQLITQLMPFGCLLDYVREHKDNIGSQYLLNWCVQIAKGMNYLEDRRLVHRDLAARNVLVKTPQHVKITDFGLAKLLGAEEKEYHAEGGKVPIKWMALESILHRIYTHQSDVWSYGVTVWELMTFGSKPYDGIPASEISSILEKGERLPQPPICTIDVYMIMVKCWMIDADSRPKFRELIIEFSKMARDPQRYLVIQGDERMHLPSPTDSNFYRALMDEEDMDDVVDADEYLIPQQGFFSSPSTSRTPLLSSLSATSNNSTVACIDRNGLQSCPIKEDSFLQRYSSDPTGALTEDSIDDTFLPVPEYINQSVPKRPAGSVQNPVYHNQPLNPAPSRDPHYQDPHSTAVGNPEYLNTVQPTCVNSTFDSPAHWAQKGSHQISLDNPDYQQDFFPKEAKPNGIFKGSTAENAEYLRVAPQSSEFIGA
Chain of Dual specificity protein kinase CLK3 (Homo sapiens) (P49761 whole entry, looked up): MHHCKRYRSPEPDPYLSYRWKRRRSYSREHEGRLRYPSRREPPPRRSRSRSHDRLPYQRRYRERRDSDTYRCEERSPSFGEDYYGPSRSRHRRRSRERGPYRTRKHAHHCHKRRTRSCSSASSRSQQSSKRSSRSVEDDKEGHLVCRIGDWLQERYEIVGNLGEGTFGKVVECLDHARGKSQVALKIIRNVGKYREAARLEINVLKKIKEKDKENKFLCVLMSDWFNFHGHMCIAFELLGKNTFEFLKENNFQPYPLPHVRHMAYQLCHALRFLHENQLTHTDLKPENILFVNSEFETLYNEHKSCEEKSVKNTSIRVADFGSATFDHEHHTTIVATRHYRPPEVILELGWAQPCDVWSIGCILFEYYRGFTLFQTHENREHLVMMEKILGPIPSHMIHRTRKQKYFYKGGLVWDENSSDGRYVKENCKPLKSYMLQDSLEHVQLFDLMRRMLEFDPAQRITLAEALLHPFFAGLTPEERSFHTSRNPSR
Chain of Serine/threonine-protein kinase Nek6 (Homo sapiens) (Q9HC98 whole entry): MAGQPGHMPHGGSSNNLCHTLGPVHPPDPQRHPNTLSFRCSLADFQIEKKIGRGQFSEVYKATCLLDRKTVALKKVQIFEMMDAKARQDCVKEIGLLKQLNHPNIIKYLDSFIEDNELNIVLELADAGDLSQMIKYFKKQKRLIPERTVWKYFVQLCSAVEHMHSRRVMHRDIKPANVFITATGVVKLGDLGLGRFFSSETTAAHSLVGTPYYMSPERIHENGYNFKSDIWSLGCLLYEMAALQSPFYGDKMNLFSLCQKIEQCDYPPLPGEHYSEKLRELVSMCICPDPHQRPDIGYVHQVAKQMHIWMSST

SMILES: CC(C)(O)C(=O)N1CCN(c2ccc(C(F)(F)F)c(C3=C(c4c[nH]c5ccccc45)C(=O)NC3=O)c2)CC1
IC50 [1]: < 1000 nM | IC50 (Protein kinase C (PKC)): < 1000 nM

SMILES: N#C/C(=C\c1cccc(-c2cccc3[nH]ncc23)c1)C(N)=O
IC50 [2]: 2410 nM | IC50 [3]: > 10000 nM | IC50 [4]: 6930 nM | IC50 [5]: 2050 nM | IC50 [6]: 1670 nM

SMILES: C=CC(=O)Nc1ccc2ncn(-c3cncc(Nc4ccccc4)n3)c2c1
IC50 [7]: 660 nM | IC50 [8]: 1000 nM | IC50 [9]: 300 nM | IC50 [10]: 550 nM | IC50 [11]: 980 nM | IC50 [12]: 550 nM | IC50 [13]: 20 nM | IC50 [14]: 640 nM

More lines, main results first:

IC50 [15]: 7100 nM | IC50 [16]: 9400 nM | IC50 [9]: 2 nM | IC50 [17]: 7800 nM | IC50 [18]: 7400 nM | IC50 [13]: 3 nM | IC50 [14]: 1250 nM | IC50 [19]: 5600 nM | IC50 [20]: 3100 nM
SMILES: C=CC(=O)Nc1nc2cnc3[nH]ccc3c2n1C

inhibition [21]: 100% | inhibition [22]: 65% | inhibition [24]: Active | inhibition [25]: 100% | inhibition [26]: 135% | inhibition [27]: 100% | inhibition [28]: 100% | inhibition [29]: 11% | inhibition [30]: 145% | inhibition [31]: 100% | inhibition [32]: 148% | IC50 [7]: 660 nM | inhibition [34]: 62% | inhibition [35]: 100% | inhibition [36]: 100% | inhibition [37]: 53% | inhibition [39]: 100% | inhibition [40]: 135% | inhibition [41]: 100% | inhibition [43]: 133% | inhibition [44]: 100% | inhibition [45]: 142% | inhibition [47]: Active | inhibition [48]: 100% | inhibition [49]: 141%
SMILES: CN(C)C(=O)C(C#N)=Cc1ccc(-c2nc3cnc4[nH]ccc4c3n2C2CCCCC2)o1 (mixture of isomers)
inhibition at 0.3 µM (cells [23]): 100% | inhibition (CD4+ve Th [33]): Active | inhibition (CD4+ve Th [38]): inactive | inhibition (CD4+ve Th [42]): inactive | inhibition at 0.3 µM (cells [46]): 100%
